In PMC6440935, “Characterization and phase I study of CLR457, an orally bioavailable pan-class I PI3-kinase inhibitor” (Investigational New Drugs, 2018):
Read-outs that look alike come from different tables or passages of the source.

Source text: The primary objective was to define the maximum tolerated dose (MTD). Secondary objectives included assessments for safety, tolerability, pharmacokinetic (PK) profile, and preliminary antitumor activity.
Patients had histologically documented locally advanced or metastatic solid tumors harboring an activating PIK3CA mutation or amplification, PTEN loss of function, c-MET activation, [16, 17] […] Other key inclusion criteria included age ≥ 18 years, Eastern Cooperative Oncology Group performance status (ECOG-PS) ≤2, adequate organ function, measurable or non-measurable disease as determined by Response Evaluation Criteria in Solid Tumors (RECIST) version 1.1.
The starting dose for CLR457 was 5 mg QD, based on preclinical toxicology studies in accordance with ICH guidelines, and was administered at the same time each day ±2 h in a fasted state. Various doses were planned up to 300 mg QD until MTD determination.
Safety was evaluated by incidence, nature, severity, and relatedness of adverse events (AEs), and graded according to National Cancer Institute - Common Terminology Criteria for Adverse Events (NCI CTCAE) v4.0.3. DLTs were defined as any hematologic or non-hematologic ≥ Grade 3 AE assessed as possibly related to CLR457 that occurred within the first cycle (28 days) of treatment. In addition, uncontrolled (> 14 days) Grade 2 rash or hyperglycemia were also considered DLTs. All AEs regardless of attribution were collected until 30 days following the last administration of treatment or study discontinuation/termination.
Descriptive methods were used to tabulate toxicity and response endpoints in the clinical trial. All patients treated with CLR457 were included for safety. […] Dose escalation was guided by an adaptive Bayesian logistic regression model (BLRM) incorporating the escalation with overdose control (EWOC) principle. […] The study data (including DLTs during cycle 1 and other safety and PK data) were reviewed by the sponsor and trial investigators at each dose level. […] The Full Analysis Set (FAS) included all patients who received at least one dose of CLR457. Safety set included all patients who received at least one dose of CLR457 and had at least one valid post-baseline assessment. The Dose-determining set (DDS) included all patients from the safety set who either met the following minimum exposure criterion and had sufficient safety evaluations, or experienced a DLT during Cycle 1 (the first 28 days of dosing). The Pharmacokinetic analysis set included all patients who had at least one blood sample providing evaluable PK data.

C[C@H]1OC(=O)N(c2cc(-c3cnc(N)nc3C(F)(F)F)nc(N3CCOCC3)n2)[C@H]1CO [CLR457]
DLT hyperglycemia in the first cycle (5 mg, DDS N = 2): 0 n (%) | DLT maculo-papular rash in the first cycle (5 mg, DDS N = 2): 0 n (%) | Total DLTs in the first cycle (5 mg, DDS N = 2): 0 n (%) | Treatment discontinuation, primary reason adverse event (5 mg, FAS N = 2): 0 n (%) | DLT hyperglycemia in the first cycle (10 mg, DDS N = 3): 0 n (%) | DLT maculo-papular rash in the first cycle (10 mg, DDS N = 3): 0 n (%) | Total DLTs in the first cycle (10 mg, DDS N = 3): 0 n (%) | Treatment discontinuation, primary reason adverse event (10 mg, FAS N = 3): 0 n (%) | DLT hyperglycemia in the first cycle (20 mg, DDS N = 4): 0 n (%) | DLT maculo-papular rash in the first cycle (20 mg, DDS N = 4): 0 n (%) | Total DLTs in the first cycle (20 mg, DDS N = 4): 0 n (%) | Treatment discontinuation, primary reason adverse event (20 mg, FAS N = 4): 0 n (%) | DLT maculo-papular rash (40 mg): one | DLT hyperglycemia in the first cycle (40 mg, DDS N = 5): 0 n (%) | DLT maculo-papular rash in the first cycle (40 mg, DDS N = 5): 1 (20.0) n (%) | Total DLTs in the first cycle (40 mg, DDS N = 5): 1 (20.0) n (%) | Treatment discontinuation, primary reason adverse event (40 mg, FAS N = 5): 1 (20.0) n (%) | DLT hyperglycemia in the first cycle (70 mg, DDS N = 6): 0 n (%) | DLT maculo-papular rash in the first cycle (70 mg, DDS N = 6): 0 n (%) | Total DLTs in the first cycle (70 mg, DDS N = 6): 0 n (%) | Treatment discontinuation, primary reason adverse event (70 mg, FAS N = 6): 0 n (%) | DLT Grade 3 hyperglycemia (100 mg): 1 patient | DLT maculo-papular rash (100 mg): two | Patients with ≥ grade 3 toxicity (100 mg cohort (n = 11)): 100% | Rash ≥ grade 3 (100 mg cohort (n = 11)): 45.5% | Patients with a DLT in the 100 mg cohort (100 mg, 3 of 11 patients): 27.3% | Patients with at least one SAE irrespective of treatment (100 mg, 7 of 11 pts): 63.6% | DLT hyperglycemia in the first cycle (100 mg, DDS N = 9): 1 (11.1) n (%) | DLT maculo-papular rash in the first cycle (100 mg, DDS N = 9): 2 (22.2) n (%) | Total DLTs in the first cycle (100 mg, DDS N = 9): 3 (33.3) n (%) | Treatment discontinuation, primary reason adverse event (100 mg, FAS N = 11): 4 (36.4) n (%) | Diarrhea requiring dose interruption or reduction (4 patients): 22% | Maculo-papular rash requiring dose interruption or reduction (8 patients): 44.44% | DLT hyperglycemia in the first cycle (All Patients, DDS N = 29): 1 (3.4) n (%) | DLT maculo-papular rash in the first cycle (All Patients, DDS N = 29): 3 (10.3) n (%) | Total DLTs in the first cycle (All Patients, DDS N = 29): 4 (13.8) n (%) | Treatment discontinuation, primary reason adverse event (All Patients, FAS N = 31): 5 (16.1) n (%) | DLT maculo-papular rash (all doses): 3 patients | On-study deaths attributed to the study drug (all patients): none | Maculo-papular rash, grade 3/4 (all patients N = 31): 25.8% | Patients with Grade 3/4 drug-related AEs (all patients N = 31): 51.6% | On-study deaths (all patients, 5 disease progression, 1 multi-organ failure): Six | AEs requiring dose interruptions or dose reductions (all patients, 18 patients): 58.1% | Asthenia, Grade ≥ 3 (drug-related, 5 mg, N = 2): 0 n (%) | Chills, All Grade (drug-related, 5 mg, N = 2): 0 n (%) | Chills, Grade ≥ 3 (drug-related, 5 mg, N = 2): 0 n (%) | Colitis, All Grade (drug-related, 5 mg, N = 2): 0 n (%) | Colitis, Grade ≥ 3 (drug-related, 5 mg, N = 2): 0 n (%) | Cough, All Grade (drug-related, 5 mg, N = 2): 0 n (%) | Cough, Grade ≥ 3 (drug-related, 5 mg, N = 2): 0 n (%) | Decreased appetite, All Grade (drug-related, 5 mg, N = 2): 0 n (%) | Decreased appetite, Grade ≥ 3 (drug-related, 5 mg, N = 2): 0 n (%) | Decreased neutrophil count, All Grade (drug-related, 5 mg, N = 2): 0 n (%) | Decreased neutrophil count, Grade ≥ 3 (drug-related, 5 mg, N = 2): 0 n (%) | Dehydration, All Grade (drug-related, 5 mg, N = 2): 0 n (%) | Dehydration, Grade ≥ 3 (drug-related, 5 mg, N = 2): 0 n (%) | Diarrhea, All Grade (drug-related, 5 mg, N = 2): 0 n (%) | Diarrhea, Grade ≥ 3 (drug-related, 5 mg, N = 2): 0 n (%) | Dry mouth, All Grade (drug-related, 5 mg, N = 2): 0 n (%) | Dry mouth, Grade ≥ 3 (drug-related, 5 mg, N = 2): 0 n (%) | Dry skin, All Grade (drug-related, 5 mg, N = 2): 0 n (%) | Dry skin, Grade ≥ 3 (drug-related, 5 mg, N = 2): 0 n (%) | Dysgeusia, All Grade (drug-related, 5 mg, N = 2): 0 n (%) | Dysgeusia, Grade ≥ 3 (drug-related, 5 mg, N = 2): 0 n (%) | Fatigue, All Grade (drug-related, 5 mg, N = 2): 1 (50.0) n (%) | Fatigue, Grade ≥ 3 (drug-related, 5 mg, N = 2): 0 n (%) | Headache, All Grade (drug-related, 5 mg, N = 2): 0 n (%) | Headache, Grade ≥ 3 (drug-related, 5 mg, N = 2): 0 n (%) | Hyperglycemia, All Grade (drug-related, 5 mg, N = 2): 0 n (%) | Hyperglycemia, Grade ≥ 3 (drug-related, 5 mg, N = 2): 0 n (%) | Hypomagnesaemia, All Grade (drug-related, 5 mg, N = 2): 0 n (%) | Hypomagnesaemia, Grade ≥ 3 (drug-related, 5 mg, N = 2): 0 n (%) | Maculo-papular rash, All Grade (drug-related, 5 mg, N = 2): 0 n (%) | Maculo-papular rash, Grade ≥ 3 (drug-related, 5 mg, N = 2): 0 n (%) | Nausea, All Grade (drug-related, 5 mg, N = 2): 0 n (%) | Nausea, Grade ≥ 3 (drug-related, 5 mg, N = 2): 0 n (%) | Pneumonitis, All Grade (drug-related, 5 mg, N = 2): 0 n (%) | Pneumonitis, Grade ≥ 3 (drug-related, 5 mg, N = 2): 0 n (%) | Pruritus, All Grade (drug-related, 5 mg, N = 2): 0 n (%) | Pruritus, Grade ≥ 3 (drug-related, 5 mg, N = 2): 0 n (%) | Pyrexia, All Grade (drug-related, 5 mg, N = 2): 0 n (%) | Pyrexia, Grade ≥ 3 (drug-related, 5 mg, N = 2): 0 n (%) | Rash, All Grade (drug-related, 5 mg, N = 2): 0 n (%) | Rash, Grade ≥ 3 (drug-related, 5 mg, N = 2): 0 n (%) | Stomatitis, All Grade (drug-related, 5 mg, N = 2): 0 n (%) | Stomatitis, Grade ≥ 3 (drug-related, 5 mg, N = 2): 0 n (%) | Vomiting, All Grade (drug-related, 5 mg, N = 2): 0 n (%) | Vomiting, Grade ≥ 3 (drug-related, 5 mg, N = 2): 0 n (%) | Weight decreased, All Grade (drug-related, 5 mg, N = 2): 0 n (%) | Weight decreased, Grade ≥ 3 (drug-related, 5 mg, N = 2): 0 n (%) | Asthenia, Grade ≥ 3 (drug-related, 10 mg, N = 3): 0 n (%) | Chills, All Grade (drug-related, 10 mg, N = 3): 0 n (%) | Chills, Grade ≥ 3 (drug-related, 10 mg, N = 3): 0 n (%) | Colitis, All Grade (drug-related, 10 mg, N = 3): 0 n (%) | Colitis, Grade ≥ 3 (drug-related, 10 mg, N = 3): 0 n (%) | Cough, All Grade (drug-related, 10 mg, N = 3): 0 n (%)
